# Data published in patent US20230355815A1, “ACTIVE DELIVERY OF RADIOTRACERS ACROSS THE BLOOD BRAIN BARRIER” (The Board of Trustees of the Leland Stanford Junior …, priority 2021, published 2023).
# Experiments:
# [1] = molecular target: T1, TSPO (Mus musculus, UniProt P50637); assay: TSPO-PET/CT imaging of EAE mice; assay type: in vivo
# T1 construct: endogenous in cells; host or cells: tissues of living C57BL/6 mice (EAE and naive)
# Description: Mice were categorized as pre-symptomatic (pre; score 0, >1 g weight loss in 48 h), low (score 0.5-2), or high EAE (score 2.5-4.5). Anti-TREM1 monoclonal antibody (mAb) was DOTA-conjugated and radiolabeled with ^64Cu. PET/CT imaging was performed 20 hours post-injection of [^64Cu]TREM1-mAb (95-120 μCi, >99% RCP) or 50-60 min after TSPO-targeted radiotracer [^18F]GE-180 (231-269 μCi, >99% RCP). Following PET, mice were perfused to remove unbound intravascular tracer and radioactivity in central nervous system (CNS) tissues was measured using a gamma counter.
# TREMl-PET is a more sensitive tool for detecting neuroinflammation in EAE compared to TSPO-PET Next, we examined the sensitivity of TREMl-PET compared to the gold standard approach for assessing neuroinflammation in vivo for both preclinical and clinical research—TSPO-PET. Naive and EAE mice were injected with [^18F]GE-180. a highly sensitive and selective tracer for TSPO in rodents (26), and PET images were acquired 50-60 min following tracer administration. […] Specifically, peritoneum adhesions encompassing the spleen. mesentery, and stomach, as well as abdominal granulomatous inflammation, have been reported in mice injected with CFA (27). […]
# [^18F]GE-180 was synthesized as previously described (46). Chemical and radiochemical purity were determined by reverse-phase analytical HPLC (Phenomenex Luna column, 150×4.6 mm. particle size 3 μm. pore size 100 A) using a 11 min 50-95% gradient (0.1 mg/mL ascorbic acid in H2O:MeCN. monitored by gamma detection and UV at 254 and 280 nm). […]
# PET images were analyzed using Vivoquant software (version 4.0. inviCRO) and visualized using Inveon Research Workspace (IRW, version 4.0: Siemens). Brain uptake was quantified as previously described (47). lo brief, a 3-dimensional mouse brain atlas was utilized to obtain tracer uptake values in a priori regions of interest (whole brain, pons. medulla. and cerebellum). Cervical/thoracic and lumbar spinal cord quantification was obtained via segmentation and exclusion of the vertebral column. […]
# [2] = system: TREM1; details: animal models of sepsis; cited from earlier work
# [3] = system: TREM1 signaling; assay: LP17 treatment study in EAE mice; assay type: in vivo, mouse; details: vs saline
# Description: Spinal cords were further analyzed via high-resolution autoradiography. Flow cytometry was performed on CNS tissues using TREM1, CD45, CD11b, CD11c, CD3, and Ly-6G to delineate immune cell populations. Quantitative PCR was performed to assess changes in mRNA expression. LP17, a decoy receptor peptide known to attenuate TREM1 signaling, was administered daily to pre EAE mice (10, 15 mg/kg, or saline i.p) for 10 days.
# Blocking TREMi signaling genetically and pharmacologically attenuates EAE severity. To explore the biological relevance of TREMl in EAE development and progression, we assessed disease trajectory in KO EAE compared to WT EAE animals. While 83% of WT mice developed EAE, only 40% of Trem/KO mice developed symptoms during the same timeframe. […] Next, to determine if blocking TREM I signaling during disease development could have therapeutic effects, we treated WT EAE animals with LP 17 (10 or 15 mg/kg)—a 17 mer peptide decoy receptor, previously shown to attenuate TREMi signaling (25, 38)—and compared disease progression to vehicle (saline) treated mice.
# LPI 7 peptide (sequence: […] […]) was synthesized by the Protein and Nucleic Acid Core Facility at Stanford University as previously described (J 9). WT EAE mice were induced with EAE and monitored daily as previously outlined. […] LP 17 or saline was administered daily (i.p) for 10 days and disease level was recorded.
# T1 sequence (P50637 whole entry): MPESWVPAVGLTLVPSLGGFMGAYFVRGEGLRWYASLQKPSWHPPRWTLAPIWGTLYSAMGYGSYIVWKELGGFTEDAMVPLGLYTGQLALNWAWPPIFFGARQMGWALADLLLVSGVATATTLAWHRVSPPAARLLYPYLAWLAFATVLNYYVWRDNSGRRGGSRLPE
Molecule,TSPO-PET signal in the brain ([1]; EAE vs naive mice),"TSPO-PET uptake in cervical/thoracic and lumbar spinal cords ([1]; EAE vs naive mice, 50-60 min post-injection)",CNS tracer binding ([1]; control mice (CFA emulsion without MOG) vs naive untouched mice),pro-inflammatory mediators and survival [2],EAE disease severity ([3]; 10 mg/kg daily i.p. for 10 days from pre EAE stage),EAE disease severity ([3]; 15 mg/kg daily i.p. for 10 days from pre EAE stage)
CCN(CC)C(=O)[C@H]1CCCc2c1c1c(OC)cccc1n2CC[18F] [[^18F]GE-180],no significant differences,significantly reduced uptake,decreased,–,–,–
CC(C)[C@]12O[C@H]1[C@@H]1O[C@]13[C@]1(O[C@H]1C[C@H]1C4=C(CC[C@@]13C)C(=O)OC4)[C@@H]2O [triptolide],–,–,–,reduce pro-inflammatory mediators and increase survival,–,–
LP17: 17 mer peptide decoy receptor attenuating TREM1 signaling; sequence LQVTDSGL YRCVIYHPP (LQVTDSGLYRCVIYHPP),–,–,–,reduce pro-inflammatory mediators and increase survival,not,Significant attenuation of disease severity
